“Also recorded” adds a separate entry of the source.
Legend:
HMLE-Twist-ER cells [1] = assay: in vitro mammosphere formation assay; assay type: cell-based, human; conditions: HMLE-Twist-ER cells expressing shDPYD_1, exogenous addition of metabolite
Protocol: 500 cells/well were seeded in 96-well ultra-low adhesion plates (Corning, 3474) in MammoCult Basal Medium (Stem Cell Technology, 05621) containing 2.6% methylcellulose (Stem Cell Technology, H4100) and 10% MammoCult Proliferation Supplements (Stem Cell Technology, 05621), supplemented with 0.5 μg/ml hydrocortisone, 4 μg/ml Heparin and Pen/strep. Spheres were counted 12-14 days later.

HMLE-Twist-ER cells [2] = assay: LC-MS measurement of cellular DHU and uracil; assay type: cell-based, human; conditions: OHT treatment of HMLE-Twist-ER cells, 15 days time course
Protocol: Solvents were obtained from Fisher Scientific and were Optima LC/MS grade except where otherwise specified. Cells grown in standard tissue culture plates (500,000 cells per sample) were washed twice in an ice-cold solution of 0.9% NaCl in deionized water, followed by extraction on dry ice in 1 mL 80% methanol containing 10 ng/mL phenylalanine-d8 and valine-d8 (Sigma-Aldrich) as internal standards. The cell mixtures were shaken vigorously on a Vortex mixer for 10 min. at 4° C., vacuum-dried, and resuspended in 100 μL LC/MS grade water (Fisher). These extracts were then centrifuged at 15,000×g at 4° C. for 10 min, and the supernatants were passed through a cellulose acetate particulate filter (National Scientific). […]
The UPLC system was coupled to a QExactive orbitrap mass spectrometer equipped with a HESI II probe (Thermo Fisher Scientific) operating in positive ion mode. […] Quantitation of the data was performed with XCalibur QuanBrowser 2.2 (Thermo Fisher Scientific) using a 5 ppm mass tolerance, by a researcher blinded to the identity of the samples. Pure thymine (T0376), and uracil (U1128) were obtained from Sigma-Aldrich and dihydrothymine (L01996), and dihydrouracil (L01918) were obtained from Alfa Aesar and were run in half-log serial dilution (3 nM-100 μM) to confirm chromatographic retention times and generate standard curves for quantitation of each analytical batch.

## O=c1cc[nH]c(=O)[nH]1 [uracil]
HMLE-Twist-ER cells [1]
  rescue of mammosphere formation: significantly smaller effect

## CC1CNC(=O)NC1=O (stereo not shown) [DHT, dihydrothymine]
HMLE-Twist-ER cells [1]
  rescue of mammosphere formation: dose-dependent rescue of mammosphere formation

## O=C1CCNC(=O)N1 [DHU, dihydrouracil]
HMLE-Twist-ER cells [1]
  rescue of mammosphere formation: more strongly than uracil; also recorded: dose-dependent rescue of mammosphere formation

## 4-hydroxytamoxifen [OHT]
HMLE-Twist-ER cells [2]
  increase of cellular DHU/uracil molar ratio: 5 fold
